Reference: patent US4166114A, “Aminoglycoside antibiotic derivatives and method of use” (Shionogi & Co., Ltd., priority 1976, dated 1979)
Values after ≈ are worked out from the molar mass of the structure shown. Read-outs that look alike come from different tables or passages of the source.

Assays:
[1] = literature (Kawaguchi et al.; Fujisawa et al.); cited from earlier work
[2] = test system: kanamycin resistant bacteria; settings: literature (Kawaguchi et al.; Fujisawa et al.); cited from earlier work
Proteus mirabilis TB-617 = test: MIC (minimum inhibitory concentration); assay type: cell-based
Escherichia coli TB-705 = test: MIC (minimum inhibitory concentration); assay type: cell-based; settings: TB705, Table 3
[3] = test system: Pseudomonas aeruginosa PP-6; test: MIC (minimum inhibitory concentration); settings: tobramycin resistant organism
[4] = test system: Escherichia coli W-677/JR 214; test: MIC (minimum inhibitory concentration); settings: tobramycin resistant organism
[5] = test system: Klebsiella pneumoniae Kl-38; test: MIC (minimum inhibitory concentration)
[6] = test system: Staphylococcus aureus 80285; test: MIC (minimum inhibitory concentration)
[7] = test system: Enterobacter cloacae CI-83; test: MIC (minimum inhibitory concentration); settings: CI83
[8] = test system: Serratia marcescens MA-26; test: MIC (minimum inhibitory concentration); settings: MA26
[9] = test system: Citrobacter freundii Ct-31; test: MIC (minimum inhibitory concentration); settings: CT31
Proteus rettgeri Ret 33 = test: MIC (minimum inhibitory concentration); settings: Providencia rettgeri, RET33
[10] = test system: Pseudomonas aeruginosa TM-121; test: MIC (minimum inhibitory concentration)
[11] = test system: Staphylococcus aureus ATCC 25923; test: MIC (minimum inhibitory concentration)
[12] = test system: Escherichia coli W-677/JR 762; test: MIC (minimum inhibitory concentration)
[13] = Proteus mirabilis, TB617, Table 3, read-out: MIC
[14] = Pseudomonas aeruginosa, PP6, Table 3
[15] = Escherichia coli, W677/JR214, Table 3
[16] = Klebsiella pneumoniae, KL38, Table 3
[17] = Proteus mirabilis, TB617, Table 2, read-out: MIC
[18] = Pseudomonas aeruginosa, PP6, Table 2
[19] = Staphylococcus aureus, ATCC25923
[20] = Escherichia coli, W677/JR214, Table 2
[21] = Klebsiella pneumoniae, KL38, Table 2
[22] = Table 2, tobramycin resistant organism

| Compound | MIC (Proteus mirabilis TB-617; [13]) [µg/mL] | MIC (Escherichia coli TB-705) [µg/mL] | MIC [3, 14] [µg/mL] | MIC [4, 15] [µg/mL] | MIC [5, 16] [µg/mL] | MIC [6] [µg/mL] | MIC [7] [µg/mL] | MIC [8] [µg/mL] | MIC [9] [µg/mL] | MIC (Proteus rettgeri Ret 33) [µg/mL] | MIC (Proteus mirabilis TB-617; [17]) [µg/mL] | MIC [3, 18] [µg/mL] | MIC ([10]; Pseudomonas aeruginosa, TM121) [µg/mL] | MIC [11, 19] [µg/mL] | MIC ([12]; Escherichia coli, W677/JR762) [µg/mL] | MIC [4, 20] [µg/mL] | MIC [5, 21] [µg/mL] | other results |
| --- | --- | --- | --- | --- | --- | --- | --- | --- | --- | --- | --- | --- | --- | --- | --- | --- | --- | --- |
| NCC[C@H](O)C(=O)N[C@@H]1C[C@H](N)[C@@H](O[C@H]2O[C@H](CN)[C@@H](O)[C@H](O)[C@H]2O)[C@H](O)[C@H]1O[C@H]1O[C@H](CO)[C@@H](O)[C@H](N)[C@H]1O [Amikacin, amikacin] | – | – | – | – | – | – | – | – | – | – | – | – | – | – | – | – | – | toxicity compared with kanamycin [1]: approximately the same degree of the toxicity as kanamycin; effectiveness against kanamycin resistant bacteria [2]: effective against kanamycin resistant bacteria |
| NC[C@H]1O[C@H](O[C@H]2[C@H](O)[C@@H](O[C@H]3O[C@H](CO)[C@@H](O)[C@H](N)[C@H]3O)[C@H](NC(=O)C3(O)CCNC3)C[C@@H]2N)[C@H](O)[C@@H](O)[C@@H]1O (some centres unmarked) [KM-A der., 1-N-(3-hydroxypyrrolidine-3-carbonyl)-kanamycin A] | 6.25 (≈ 10.5 µM) | 25 (≈ 41.8 µM) | 12.5 (≈ 20.9 µM) | 6.25 (≈ 10.5 µM) | 3.13 (≈ 5.24 µM) | 12.5 (≈ 20.9 µM) | 3.13 (≈ 5.24 µM) | 6.25 (≈ 10.5 µM) | 3.13 (≈ 5.24 µM) | 1.56 (≈ 2.61 µM) | – | – | – | – | – | – | – | – |
| NC[C@H]1O[C@H](O[C@H]2[C@H](O)[C@@H](O[C@H]3O[C@H](CO)[C@@H](O)[C@H](N)[C@H]3O)[C@H](N)C[C@@H]2N)[C@H](O)[C@@H](O)[C@@H]1O [KM-A, kanamycin A] | > 100 | > 100 | > 100 | > 100 | > 100 | > 100 | > 100 | > 100 | > 100 | > 100 | > 200 | 200 (≈ 413 µM) | > 200 | 6.25 (≈ 12.9 µM) | > 200 | > 200 | > 200 | – |
| CN[C@@H]1[C@@H](O)[C@@H](O[C@@H]2[C@@H](O)[C@H](O[C@H]3OC(CN)=CC[C@H]3N)[C@@H](N)C[C@H]2N)OC[C@]1(C)O [SSM, sisomicin] | – | – | – | – | – | – | – | – | – | – | 12.5 (≈ 27.9 µM) | 200 (≈ 447 µM) | 200 (≈ 447 µM) | 1.56 (≈ 3.49 µM) | 50 (≈ 112 µM) | 25 (≈ 55.9 µM) | 0.39 (≈ 0.871 µM) | – |
| NC[C@H]1O[C@H](O[C@H]2[C@H](O)[C@@H](O[C@H]3O[C@H](CO)[C@@H](O)[C@H](N)[C@H]3O)[C@H](NC(=O)C3(O)CCNCC3)C[C@@H]2N)[C@H](N)C[C@@H]1O [TOB der.] | 1.56 (≈ 2.62 µM) | 3.13 (≈ 5.26 µM) | 3.13 (≈ 5.26 µM) | 0.78 (≈ 1.31 µM) | 0.78 (≈ 1.31 µM) | 0.39 (≈ 0.656 µM) | 0.78 (≈ 1.31 µM) | 12.5 (≈ 21 µM) | 0.78 (≈ 1.31 µM) | 0.78 (≈ 1.31 µM) | 6.25 (≈ 10.5 µM) | 6.25 (≈ 10.5 µM) | 12.5 (≈ 21 µM) | 1.56 (≈ 2.62 µM) | 6.25 (≈ 10.5 µM) | 1.56 (≈ 2.62 µM) | 1.56 (≈ 2.62 µM) | – |
| NC[C@H]1O[C@H](O[C@H]2[C@H](O)[C@@H](O[C@H]3O[C@H](CO)[C@@H](O)[C@H](N)[C@H]3O)[C@H](N)C[C@@H]2N)[C@H](N)C[C@@H]1O [TOB, tobramycin] | 12.5 (≈ 26.7 µM) | 6.25 (≈ 13.4 µM) | > 100 | 100 (≈ 214 µM) | 1.56 (≈ 3.34 µM) | 0.78 (≈ 1.67 µM) | 0.78 (≈ 1.67 µM) | 50 (≈ 107 µM) | 3.13 (≈ 6.69 µM) | 1.56 (≈ 3.34 µM) | 12.5 (≈ 26.7 µM) | 50 (≈ 107 µM) | 100 (≈ 214 µM) | 1.56 (≈ 3.34 µM) | 100 (≈ 214 µM) | 50 (≈ 107 µM) | 3.13 (≈ 6.69 µM) | – |
| gentamicin [GM] | – | – | – | – | – | – | – | – | – | – | – | – | – | – | – | – | – | MIC (Proteus mirabilis TB-617; Table 2): 25 µg/mL; MIC ([3]; Table 2): > 200 µg/mL; MIC [10, 22]: 100 µg/mL; MIC ([11]; Table 2): 0.78 µg/mL; MIC [12, 22]: 100 µg/mL; MIC ([4]; Table 2): 100 µg/mL; MIC ([5]; Table 2): 0.78 µg/mL |
